Measured values from patent publication US9095138B2, “Isoxazoline insecticides” (E.I. du Pont de Nemours and Company, priority 2007, dated 2015).

Experiments:
Type in all cases: in vivo
[1] = test system: fall armyworm (Spodoptera frugiperda); experiment: Test B: control of fall armyworm on corn (maize) plant, foliar spray; conditions: sprayed at 50 ppm; 1-day-old larvae on corn; replicated three times
Description: Test compounds were formulated using a solution containing 10% acetone, 90% water and 300 ppm X-77™ Spreader Lo-Foam Formula non-ionic surfactant containing alkylarylpolyoxyethylene, free fatty acids, glycols and isopropanol (Loveland Industries, Inc. Greeley, Colo., USA). The formulated compounds were applied in 1 mL of liquid through a SUJ2 atomizer nozzle with ⅛ JJ custom body (Spraying Systems Co. Wheaton, Ill., USA) positioned 1.27 cm (0.5 inches) above the top of each test unit. All experimental compounds in these tests were sprayed at 50 ppm, and the test was replicated three times. After spraying of the formulated test compound, each test unit was allowed to dry for 1 h and then a black, screened cap was placed on top. The test units were held for 6 days in a growth chamber at 25° C. and 70% relative humidity. Plant feeding damage was then visually assessed based on foliage consumed and a pest mortality rating was also counted and calculated for each test unit.
For evaluating control of fall armyworm (Spodoptera frugiperda) the test unit consisted of a small open container with a 4-5-day-old corn (maize) plant inside. This was pre-infested (using a core sampler) with 10-15 1-day-old larvae on a piece of insect diet. Test compounds were formulated and sprayed at 50 ppm as described for Test A and replicated three times. After spraying, the test units were maintained in a growth chamber and then the control efficacy was rated for each test unit as described for Test A.

[2] = test system: diamondback moth (Plutella xylostella); experiment: Test A: control of diamondback moth on radish plant, foliar spray; conditions: sprayed at 50 ppm; neonate larvae on radish; assessed after 6 days; replicated three times
In short: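 Radish plants 12–14 days old, pre-infested with about 50 neonate larvae, were sprayed with compound at 50 ppm in 10% acetone/water with 300 ppm X-77 surfactant, in three replicates. Units were held 6 days at 25 °C and 70% RH. Feeding damage was assessed visually and mortality was counted.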

[3] = test system: western flower thrips (Frankliniella occidentalis); experiment: Test E: control of western flower thrips on Soleil bean plant, contact and/or systemic; conditions: adult thrips, assessed after 6 days, replicated three times
In short: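 A 5-7 day old Soleil bean plant was sprayed with compound at 250 or 50 ppm in 10% acetone/water with 300 ppm X-77 surfactant, dried 1 hour, then infested with 22-27 adult thrips. After 6 days at 25° C., 45-55% relative humidity, mortality and plant damage were rated; three replicates.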

| Compound | control efficacy (feeding damage or mortality): very good to excellent levels [1] | control efficacy (feeding damage or mortality): very good to excellent levels [2] | control efficacy (feeding damage or mortality): very good to excellent levels ([3]; sprayed at 50 ppm) | control efficacy (feeding damage or mortality): very good to excellent levels ([3]; sprayed at 250 ppm) |
| --- | --- | --- | --- | --- |
| C[C@@H](NC(=O)c1ccc(C2=NOC(c3cc(Cl)cc(C(F)(F)F)c3)(C(F)(F)F)C2)c2ccccc12)C(=O)NCC1CC1 (stereo partly shown) [Compound 73] | 20% or less feeding damage or 80% or more mortality | 20% or less feeding damage or 80% or more mortality | 20% or less feeding damage or 80% or more mortality | 20% or less feeding damage or 80% or more mortality |
| C[C@@H](NC(=O)c1ccc(C2=NOC(c3cc(Cl)cc(C(F)(F)F)c3)(C(F)(F)F)C2)c2ccccc12)C(N)=O (stereo partly shown) [Compound 74] | 20% or less feeding damage or 80% or more mortality | 20% or less feeding damage or 80% or more mortality | 20% or less feeding damage or 80% or more mortality | 20% or less feeding damage or 80% or more mortality |
| O=C(CNC(=O)c1ccc(C2=NOC(c3cc(Cl)cc(C(F)(F)F)c3)(C(F)(F)F)C2)c2ccccc12)NCC1CC1 (stereo not shown) [Compound 76] | 20% or less feeding damage or 80% or more mortality | 20% or less feeding damage or 80% or more mortality | 20% or less feeding damage or 80% or more mortality | 20% or less feeding damage or 80% or more mortality |
| CC(NC(=O)c1ccc(C2=NOC(c3cc(Cl)cc(C(F)(F)F)c3)(C(F)(F)F)C2)c2ccccc12)C(=O)NC1CC1 (stereo not shown) [Compound 78] | 20% or less feeding damage or 80% or more mortality | 20% or less feeding damage or 80% or more mortality | 20% or less feeding damage or 80% or more mortality | 20% or less feeding damage or 80% or more mortality |
| CC(NC(=O)c1ccc(C2=NOC(c3cc(Cl)cc(C(F)(F)F)c3)(C(F)(F)F)C2)c2ccccc12)C(=O)NCC1CC1 (stereo not shown) [Compound 79] | 20% or less feeding damage or 80% or more mortality | 20% or less feeding damage or 80% or more mortality | 20% or less feeding damage or 80% or more mortality | 20% or less feeding damage or 80% or more mortality |
| C[C@@H](NC(=O)c1ccc(C2=NOC(c3cc(C(F)(F)F)cc(C(F)(F)F)c3)(C(F)(F)F)C2)c2ccccc12)C(=O)NCC1CC1(F)F (stereo partly shown) [Compound 80] | 20% or less feeding damage or 80% or more mortality | 20% or less feeding damage or 80% or more mortality | 20% or less feeding damage or 80% or more mortality | 20% or less feeding damage or 80% or more mortality |
| O=C(CNC(=O)c1ccc(C2=NOC(c3cc(Cl)cc(OC(F)(F)F)c3)(C(F)(F)F)C2)c2ccccc12)NCC1CC1 (stereo not shown) [Compound 81] | 20% or less feeding damage or 80% or more mortality | 20% or less feeding damage or 80% or more mortality | 20% or less feeding damage or 80% or more mortality | – |
| O=C(CNC(=O)c1ccc(C2=NOC(c3cc(Cl)cc(OC(F)(F)F)c3)(C(F)(F)F)C2)c2ccccc12)NC1CC1 (stereo not shown) [Compound 82] | 20% or less feeding damage or 80% or more mortality | 20% or less feeding damage or 80% or more mortality | 20% or less feeding damage or 80% or more mortality | – |
| C[C@@H](NC(=O)c1ccc(C2=NOC(c3cc(Br)cc(C(F)(F)F)c3)(C(F)(F)F)C2)c2ccccc12)C(N)=O (stereo partly shown) [Compound 83] | 20% or less feeding damage or 80% or more mortality | 20% or less feeding damage or 80% or more mortality | 20% or less feeding damage or 80% or more mortality | – |
| O=C(CNC(=O)c1ccc(C2=NOC(c3cc(Cl)cc(OCC(F)(F)F)c3)(C(F)(F)F)C2)c2ccccc12)NCC1CC1 (stereo not shown) [Compound 84] | 20% or less feeding damage or 80% or more mortality | 20% or less feeding damage or 80% or more mortality | 20% or less feeding damage or 80% or more mortality | – |
| O=C(CNC(=O)c1ccc(C2=NOC(c3cc(Cl)cc(OCC(F)(F)F)c3)(C(F)(F)F)C2)c2ccccc12)NC1CC1 (stereo not shown) [Compound 85] | 20% or less feeding damage or 80% or more mortality | 20% or less feeding damage or 80% or more mortality | 20% or less feeding damage or 80% or more mortality | – |
| CC[C@@H](NC(=O)c1ccc(C2=NOC(c3cc(Cl)cc(C(F)(F)F)c3)(C(F)(F)F)C2)c2ccccc12)C(N)=O (stereo partly shown) [Compound 86] | 20% or less feeding damage or 80% or more mortality | 20% or less feeding damage or 80% or more mortality | 20% or less feeding damage or 80% or more mortality | – |
| CC(C)[C@@H](NC(=O)c1ccc(C2=NOC(c3cc(Cl)cc(C(F)(F)F)c3)(C(F)(F)F)C2)c2ccccc12)C(N)=O (stereo partly shown) [Compound 87] | 20% or less feeding damage or 80% or more mortality | 20% or less feeding damage or 80% or more mortality | 20% or less feeding damage or 80% or more mortality | – |
| O=C(NCC(=O)N1CCC(F)(F)C1)c1ccc(C2=NOC(c3cc(Cl)cc(Cl)c3)(C(F)(F)F)C2)c2ccccc12 (stereo not shown) [Compound 90] | 20% or less feeding damage or 80% or more mortality | 20% or less feeding damage or 80% or more mortality | 20% or less feeding damage or 80% or more mortality | 20% or less feeding damage or 80% or more mortality |
| CS(=O)(CCNC(=O)c1ccc(C2=NOC(c3cc(Cl)cc(Cl)c3)(C(F)(F)F)C2)c2ccccc12)=NC(=O)C(F)(F)F (stereo not shown) [Compound 93] | 20% or less feeding damage or 80% or more mortality | 20% or less feeding damage or 80% or more mortality | 20% or less feeding damage or 80% or more mortality | 20% or less feeding damage or 80% or more mortality |
| CS(=N)(=O)CCNC(=O)c1ccc(C2=NOC(c3cc(Cl)cc(Cl)c3)(C(F)(F)F)C2)c2ccccc12 (stereo not shown) [Compound 94] | 20% or less feeding damage or 80% or more mortality | 20% or less feeding damage or 80% or more mortality | 20% or less feeding damage or 80% or more mortality | 20% or less feeding damage or 80% or more mortality |
| CNC(=O)[C@H]1CCCN1C(=O)c1ccc(C2=NOC(c3cc(Cl)cc(Cl)c3)(C(F)(F)F)C2)c2ccccc12 (stereo partly shown) [Compound 104] | 20% or less feeding damage or 80% or more mortality | 20% or less feeding damage or 80% or more mortality | 20% or less feeding damage or 80% or more mortality | 20% or less feeding damage or 80% or more mortality |
